Measured values from EP2154155B1, “Analysis of agonist-activity and antagonist-activity to cytokinin receptor” (Sumitomo Chemical Company, Limited, priority 2001, dated 2002).

How the values were obtained:
[1] = test system: Arabidopsis thaliana cytokinin receptor AHK3, SEQ ID No: 4, expressed in transformed cell TM182-AHK3; test: Agonist-activity search: optical density of TM182-AHK3 liquid culture in 96-well plate; format: cell-based; details: examinee substance 100 µM at the final concentration, DOLU + Glu medium, 30°C, 24 hours, DMSO blank 0.51
Experimental: (§2) The pre-cultured solutions were diluted with DOLU + Glu media as to become 0.100 as the optical density (OD600) and further the resultants were diluted with DOLU + Glu media at a dilution rate of 1/200 to obtain diluted pre-cultured solutions.
(§3) An assay plate was prepared by filling respective wells of a 96-well plate with 20 µl of solutions which were prepared by diluting DMSO solution (10mM) of each examinee substance with DOLU + Glu medium at a dilution rate of 1/100, said solutions containing each examinee substance to be 100 µM at the final concentration. Simultaneously, an assay plate only filled with 20 µl of solutions which were prepared by diluting DMSO solution with DOLU + Glu medium, said solutions containing no examinee substance, was prepared as the blank sections.
(§4) The diluted pre-cultured solutions were added in 200 µl each into the respective wells of both assay plates and cultured at 30°C for 24 hours and then the optical density (OD620) of each well was measured by a plate reader. The agonist-activity of the examinee substances to the cytokinin receptor was detected by comparing the optical density measured in the testing sections to which the examinee substances were added with the optical density measured in the blank sections.

[2] = test system: Arabidopsis thaliana cytokinin receptor AHK2, SEQ ID No: 2, expressed in transformed cell TM182-AHK2; test: Agonist-activity search: optical density of TM182-AHK2 liquid culture in 96-well plate; format: cell-based; details: examinee substance 100 µM at the final concentration, DOLU + Glu medium, 30°C, 24 hours, DMSO blank 0.01
Experimental: as §2, §3, §4

[3] = test system: Arabidopsis thaliana cytokinin receptor AHK2 variant AHK2Δ (partially transmembrane region-deleted type, amino acid number 196 to 1176 of SEQ ID No: 2) …; test: Agonist-activity search: optical density of TM182-AHK2Δ liquid culture in 96-well plate; details: examinee substance 100 µM at the final concentration, DOLU + Glu medium, 30°C, 24 hours, DMSO blank 0
Experimental: The transformed cells TM 182-CRE 1, TM182-AHK2,TM182-AHK2 Δ and TM182-AHK3 produced in the example 12 were inoculated in 200 ml of DOLU + Gal culture media and pre-cultured at 30°C for 36 hours. The pre-cultured solutions were diluted with DOLU + Glu media as to become 0.100 as the optical density (OD600) and further the resultants were diluted with DOLU + Glu media at a dilution rate of 1/200 to obtain diluted pre-cultured solutions.
An assay plate was prepared by filling respective wells of a 96-well plate with 20 µl of solutions which were prepared by diluting DMSO solution (10mM) of each examinee substance with DOLU + Glu medium at a dilution rate of 1/100, said solutions containing each examinee substance to be 100 µM at the final concentration. […]
as §4

[4] = test system: Arabidopsis thaliana cytokinin receptor CRE1, SEQ ID No: 6, expressed in transformed cell TM182-CRE1; test: Growth of transformed yeast cells TM182-CRE1 spotted on DOLU + Glu agar media containing cytokinin; format: cell-based; details: 30°C, 30 hours; for lowest observed supply concentration in which the transformed cells could be grown: DOLU + Glu agar media, cytokinin 1 nM to 100 µM
Text: More particularly, for example, in the case of using a transformed cell (that is, a transformed cell having a function of directly controlling the cell growth by intracellular signal transduction from the cytokinin receptor) produced using TM182 (sln1 Δ) [Maeda T et al, Nature 369: 242-245 (1994)], a SLN1 genetically defected strain in which, for example, PTP2 Tyrosine phosphatase gene [Ota et al. Proc. N. A. Sci., USA, 89, 2355-2359 (1992)] is introduced as a host cell, the agonist-activity to the cytokinin receptor may be measured using, as an indicator, the quantity of the cell growth of the transformed cell in a culture medium (an agar culture medium or a liquid culture medium) containing glucose as a carbon source, for example, a DOLU + Glu culture medium. In the case of the DOLU + Glu culture medium to which the examinee substance is added, the examinee substance found capable of growing the transformed cell can be evaluated as a substance having the agonist-activity to the cytokinin receptor. On the other hand, in the case of the DOLU+Glu culture medium to which the examinee substance and a substance having the agonist-activity to the cytokinin receptor are added, the examinee substance found capable of suppressing or inhibiting the growth of the transformed cell can be evaluated as a substance having the antagonist-activity to the cytokinin receptor.
Transformation of TM182 (sln1Δ), SLN1 genetically detected strain, [Maeda T et al. Nature: 369 242-245 (1994)] was carried out using the obtained expression plasmid p415CYC-CRE1 (the example 5), p415CYC-AHK2 (the example 11), p415CYC-AHK2 Δ (the example 11) and p415CYC-AHK3 (the example 8). The transformation was carried out by employing Polyethylene glycol/lithium acetate (PEG/LiAc)-mediated transformation method according to the description of VII. Library Transformation & Screening Protocols disclosed in […] Two-Hybrid System 3 User Manual p.
After incubation, the growth state of the transformed cells was observed and photographed by a digital camera. […]

[5] = test system: Arabidopsis thaliana cytokinin receptor AHK2, SEQ ID No: 2, expressed in transformed cell TM182-AHK2; details: 30°C, 30 hours
Text: (§1) More particularly, for example, in the case of using a transformed cell (that is, a transformed cell having a function of directly controlling the cell growth by intracellular signal transduction from the cytokinin receptor) produced using TM182 (sln1 Δ) [Maeda T et al, Nature 369: 242-245 (1994)], a SLN1 genetically defected strain in which, for example, PTP2 Tyrosine phosphatase gene [Ota et al. Proc. N. A. Sci., USA, 89, 2355-2359 (1992)] is introduced as a host cell, the agonist-activity to the cytokinin receptor may be measured using, as an indicator, the quantity of the cell growth of the transformed cell in a culture medium (an agar culture medium or a liquid culture medium) containing glucose as a carbon source, for example, a DOLU + Glu culture medium. In the case of the DOLU + Glu culture medium to which the examinee substance is added, the examinee substance found capable of growing the transformed cell can be evaluated as a substance having the agonist-activity to the cytokinin receptor. On the other hand, in the case of the DOLU+Glu culture medium to which the examinee substance and a substance having the agonist-activity to the cytokinin receptor are added, the examinee substance found capable of suppressing or inhibiting the growth of the transformed cell can be evaluated as a substance having the antagonist-activity to the cytokinin receptor. […]

[6] = test system: Arabidopsis thaliana cytokinin receptor AHK3, SEQ ID No: 4, expressed in transformed cell TM182-AHK3; details: DOLU + Glu agar media containing 10 µM of trans-zeatin, 30°C, 30 hours, compared with media containing no trans-zeatin
Text: as §1

[7] = test system: Arabidopsis thaliana cytokinin receptor AHK2 variant AHK2Δ (partially transmembrane region-deleted type, amino acid number 196 to 1176 of SEQ ID No: 2) …; test: Growth of transformed yeast cells TM182-AHK2Δ spotted on DOLU + Glu agar media containing cytokinin; format: cell-based; details: 30°C, 30 hours
Text: as §1

[8] = DOLU + Glu agar media, cytokinin 1 nM to 100 µM
[9] = DOLU + Glu agar media containing 10 µM of trans-zeatin, compared with media containing no trans-zeatin

Structure (SMILES): CC1=CC(=O)CC(C)(C)[C@@]1(O)/C=C/C(C)=C\C(=O)O [Compound A, Abscisic acid]
- optical density (OD620) of the culture solutions of the transformed cells [1]: 0.54
- optical density (OD620) of the culture solutions of the transformed cells [2]: 0.01

Structure (SMILES): c1ccc(CNc2ncnc3nc[nH]c23)cc1 [Compound B, 6-Benzyl aminopurine]
- optical density (OD620) of the culture solutions of the transformed cells [3]: 0.89
- optical density (OD620) of the culture solutions of the transformed cells [1]: 0.88
- optical density (OD620) of the culture solutions of the transformed cells [2]: 0.45

Structure (SMILES): C/C(=C/CNc1ncnc2[nH]cnc12)CO [cis-zeatin]
- lowest observed supply concentration in which the transformed cells could be grown [4]: no growth
- lowest observed supply concentration in which the transformed cells could be grown [5, 8]: 10 µ M

Structure (SMILES): C/C(=C\CNc1ncnc2[nH]cnc12)CO [trans-zeatin]
- growth state of the transformed cells [6]: high growth
- growth state of the transformed cells [4, 9]: high growth
- lowest observed supply concentration in which the transformed cells could be grown [4]: 10 µ M
- growth state of the transformed cells [5, 9]: high growth
- growth state of the transformed cells [7, 9]: high growth
- lowest observed supply concentration in which the transformed cells could be grown [7, 8]: 100 nM
